Data reported in patent US6020342A, “Fused imidazo[1,2-A]pyridines” (Shinnippon Pharmaceutical, Inc., priority 1995, dated 2000).

How the values were obtained:
[1] = set-up: species or system male ICR mice; conditions: mouse, in vivo, po, 10080 min
Procedure: Male ICR mice (6 weeks, 3 mice per group) fasted for 16 hours were used ad libitum). A test compound suspended in 5% aqueous gum arabic solution was orally administered. After administration, mortality of the animals observed during 7 days and approximate lethal dose was determined.

H^+ /K^+ -ATPase = biological target: T1, H^+ /K^+ -ATPase (Sus scrofa, UniProt P19156); test: Inhibitory Action on H^+ /K^+ -ATPase Activity; assay type: biochemical; conditions: microsome fraction from porcine gastric mucosa, pH7.4, 37° C., 30 min preincubation, 15 min reaction
T1 construct: a microsome fraction prepared from porcine gastric mucosa was used as a standard enzyme; from tissue; host or cells: porcine gastric mucosa, microsome fraction
Procedure: Inhibitory Action on H^+ /K^+ -ATPase Activity
According to the method of Hongo et al. [The Japanese Journal of Pharmacology, 52, p295, (1990)], a microsome fraction prepared from porcine gastric mucosa was used as a standard enzyme. The standard enzyme (10-20lig protein) and the test compound (0.1-100 μM) dissolved in dimethylsulfoxide was incubated at 37° C. for 30 minutes in the 50 mM Tris-acetate buffer (pH7.4, containing 2 mM magnesium chloride, 5 mM potassium chloride). The enzyme reaction was started by adding adenosinetriphosphate (ATP). Tris at the final concentration of 2 mM, and the reaction was kept at 37° C. for 15 minutes. The reaction was stopped by adding chilled 10% trichloroacetic acid. Inorganic phosphate released during the reaction was calorimetrically determined according to the method of Fiske-Subbarow [The Journal of Biological Chemistry, 66, p375, (1925)]. H^+ /K^+ -ATPase activity was determined by the difference of the enzyme activities under the conditions with or without potassium chloride. The inhibitory activities of test compounds were determined as the 50% inhibitory concentration (IC50 value) from reaction-concentration curve, and the results are shown in Table 3.

[2] = test system: ethanol-induced gastric lesion; test: Inhibition of Ethanol-induced Gastric Lesion (Protection of gastric mucosa); assay type: in vivo, male Wister rats; conditions: Rattus norvegicus, po, 1 h; 30 mg/kg orally, rats, ethanol 0.5 ml/100 g
Procedure: Inhibition of Ethanol-induced Gastric Lesion (Protection of gastric mucosa)
Male Wister rats (6-7weeks, 5 rats per group) fasted for 24 hours were used (water ad libitum). Test compound (30 mg/kg) suspended in 0.5% aqueous CMC-Na solution was orally administered. In the control group, only 0.5% aqueous CMC-Na solution was administered. Thirty minutes after administration, 0.5 ml/100 g body weight of ethanol was orally administered to cause gastric lesion. After one hour, the rat was killed by excessive amount of ether, and the stomach was removed and fixed with 2% formalin. After fixation, the stomach was dissected along the large curvature. The size of each of mucosal lesions was measured under dissecting microscope, and the total size of the lesions per rat was determined and used as ulcer index (mm). Inhibition of gastric lesion was determined by comparing the ulcer index in the control group and test group.

gastric acid secretion [3] = test: Inhibition of Gastric Acid Secretion Observed Under Acute Fistula Method; assay type: in vivo, male Wistar rats; conditions: Rattus norvegicus; 30 mg/kg intraduodenally, rats, histamine 10 mg/kg s.c., cumulative 2 h
Procedure: Inhibition of Gastric Acid Secretion Observed Under Acute Fistula Method
Male Wistar rats (6-8 weeks) fasted for 24 hours (water ad libitum) were used. The rats were anesthetized by intraperitoneal administration of 1.25 g/kg of urethane. The abdomen was incised, and acute gastric fistula was connected to the stomach. Two ml of saline was injected into the stomach, and recovered every 20 minutes. The gastric acid secretion was determined by titrating of gastric juice by 150 mM sodium hydroxide up to pH7.0 using an autotitrator. Test compounds (30 mg/kg) suspended in a 0.5% aqueous sodium carboxymethylcellulose (CMC-Na) solution were administered intraduodenally. After 1 hour, gastric acid secretion was stimulated by subcutaneous administration of histamine dihydrochloride dissolved in saline (10 mg/kg). Inhibition (%) of gastric acid secretion was determined by calculating cumulative amount of the acid secretion during two hours after histamine stimulation and then comparing the cumulative amount with that in the control group. In the control group, only 0.5% aqueous CMC-Na solution was administered intraduodenally.

gastric acid secretion [4] = test: Inhibition of Gastric Acid Secretion Observed Under Stomach Perfusion Method; assay type: in vivo, male Sprague Dawrey rats; conditions: Rattus norvegicus, ip, 1 h; rats, histamine i.v. 8 mg/kg/hr, inhibition one hour after administration (1-10 mg/kg, "intrapenetorially"); read-out: ID50 (dose showing 50% inhibition of acid secretion)
Procedure: Inhibition of Gastric Acid Secretion Observed Under Stomach Perfusion Method
Male Sprague Dawrey rats (6-7weeks) fasted for 24 hours were used (water ad libitum). The rats were anesthetized by intraperitoneal administration of 1.25 g/kg of urethane. The abdomen was incised, and gastral cavity was perfused with saline during experiment. The perfusate was titrated by 10 mM sodium hydroxide up to pH5.5 using an autotitrator in accordance with Stat-method. Gastric acid secretion was stimulated by intravenous administration of histamine dihydrochloride (8 mg/kg/hr). Two hours after histamine stimulation, a test compound 1-10 mg/kg) was administered intrapenetorially. The test compound was mixed with small amount of polysorbate-80, and the mixture was suspended in saline. The test compound was evaluated using ID50 (dose showing 50% inhibition of acid secretion) which was calculated based on inhibition of the acid secretion observed one hour after administration of the compound.

T1 sequence (P19156 2-1034 limits assumed): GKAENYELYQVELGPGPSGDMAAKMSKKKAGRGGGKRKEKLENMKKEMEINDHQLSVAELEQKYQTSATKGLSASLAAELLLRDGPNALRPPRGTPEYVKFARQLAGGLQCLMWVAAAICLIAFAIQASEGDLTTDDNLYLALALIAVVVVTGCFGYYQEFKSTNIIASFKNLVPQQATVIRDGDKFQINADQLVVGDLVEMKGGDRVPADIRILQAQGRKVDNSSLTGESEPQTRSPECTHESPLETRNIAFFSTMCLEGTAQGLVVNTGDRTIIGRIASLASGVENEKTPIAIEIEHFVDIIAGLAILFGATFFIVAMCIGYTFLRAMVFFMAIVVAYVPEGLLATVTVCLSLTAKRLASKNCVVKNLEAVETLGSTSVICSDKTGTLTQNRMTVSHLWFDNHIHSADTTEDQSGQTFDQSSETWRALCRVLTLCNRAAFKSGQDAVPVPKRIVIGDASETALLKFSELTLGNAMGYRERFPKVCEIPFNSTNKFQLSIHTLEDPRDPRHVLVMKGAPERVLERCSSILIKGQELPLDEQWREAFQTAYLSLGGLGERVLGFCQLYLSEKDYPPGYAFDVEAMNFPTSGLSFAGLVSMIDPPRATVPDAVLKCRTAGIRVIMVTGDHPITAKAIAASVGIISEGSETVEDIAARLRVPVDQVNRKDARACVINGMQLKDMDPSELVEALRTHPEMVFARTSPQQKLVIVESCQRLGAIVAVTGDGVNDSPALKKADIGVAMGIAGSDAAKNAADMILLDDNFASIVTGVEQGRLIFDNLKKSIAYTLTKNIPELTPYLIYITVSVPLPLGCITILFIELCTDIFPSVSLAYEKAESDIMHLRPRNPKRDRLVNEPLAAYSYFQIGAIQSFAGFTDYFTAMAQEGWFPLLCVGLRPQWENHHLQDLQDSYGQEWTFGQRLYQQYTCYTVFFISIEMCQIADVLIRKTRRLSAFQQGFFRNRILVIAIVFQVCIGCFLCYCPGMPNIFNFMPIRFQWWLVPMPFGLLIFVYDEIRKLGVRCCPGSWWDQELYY
T1 sequence (P18434 whole entry partner): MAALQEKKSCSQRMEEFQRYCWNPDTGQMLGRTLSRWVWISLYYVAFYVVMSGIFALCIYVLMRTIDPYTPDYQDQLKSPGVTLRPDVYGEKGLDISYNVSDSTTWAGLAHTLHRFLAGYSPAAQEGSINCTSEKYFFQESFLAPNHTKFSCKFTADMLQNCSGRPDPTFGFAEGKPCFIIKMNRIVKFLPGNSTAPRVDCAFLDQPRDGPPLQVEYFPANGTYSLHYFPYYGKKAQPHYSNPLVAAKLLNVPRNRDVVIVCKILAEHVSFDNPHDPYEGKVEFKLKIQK

| Structure (SMILES) | Approximate lethal dose [1] | IC50 (H^+ /K^+ -ATPase) [µM] | inhibition in vivo at 30 mg/kg [2] [%] | inhibition in vivo at 30 mg/kg (gastric acid secretion [3]) [%] | ED50 (gastric acid secretion [4]) [mg/kg] |
| --- | --- | --- | --- | --- | --- |
| Cc1ccccc1-c1nc2c3ccccc3ccn2c1N [Compound 3, 3-Amino-2-(2-methylphenyl)imidazo[2,1-a]isoquinoline] | > 2,000 mg/kg | 26 | 73.5 | 82.2 | 3.4 |
| CCNc1c(-c2ccccc2C)nc2c3ccccc3ccn12 [Compound 158, 3-Ethylamino-2-(2-methylphenyl)imidazo[2,1-a]isoquinoline] | > 2,000 mg/kg | 13 | 92.4 | 83.6 | 8.6 |
| CCNc1c(-c2ccccc2C)nc2c3ccccc3c(OC)cn12 [Compound 166, 3-Ethylamino-6-methoxy-2-(2-methylphenyl)imidazo[2,1-a]isoquinoline] | > 2,000 mg/kg | 23 | 49.7 | 54.9 |  |
| C=CCNc1c(-c2ccccc2C)nc2c3ccccc3ccn12 [Compound 221, 3-allylamino-2-(2-methylphenyl)imidazo[2,1-a]isoquinoline] | > 2,000 mg/kg |  | 73.7 | 66.7 |  |
| C=CCN(CC)c1c(-c2ccccc2C)nc2c3ccccc3ccn12 [Compound 222, 3-(N-Allyl-N-ethylamino)-2-(2-methylphenyl)imidazo[2,1-a]isoquinoline] | > 2,000 mg/kg | 2 | 98.8 | 72.6 |  |
